Data from patent US4100346A, “Certain 7(o-amino-methyl- or methylaminomethylphenyl- or cyclohexadienyl- or thienylacetamide)-3[1-carboxymethyl-(or ethyl- or propyl-)-tetrazol-5-ylthiomethyl]-3-cephem-4-carboxylic acids” (Bristol-Myers Company, priority 1976, dated 1978).
Values after ≈ are worked out from the molar mass of the structure shown. Where two headings read alike, the source gives them in different places.

Key:
Vibrio cholerae = test: Growth inhibitory activity, antibiotic dilution technique; details: read-out: Minimum inhibitory concentration
Escherichia coli [1] = test: Effect of inoculum size on susceptibility of Enterobacteriaceae
Serratia marcescens = test: Growth inhibitory activity, antibiotic dilution technique; details: read-out: Minimum inhibitory concentration
Proteus rettgeri [2] = test: Effect of inoculum size on susceptibility of Enterobacteriaceae; details: Providencia rettgeri
Alcaligenes sp. = test: Growth inhibitory activity, antibiotic dilution technique
[3] = Recovery in urine after intramuscular injection; details: rat, im, 10 mg/kg
Clostridium sp. = test: microbe, parasite or virus in culture; type: cell-based
Method: Antibiotic spectrum. […] Procedures were as follows:
c. Obligate anaerobes. The assay was performed on solid medium, consisting of Brain Heart Infusion Broth (BBL) supplemented with 5% defibrinated sheep blood and 1% Ionagar (Colab).

Proteus vulgaris = test: Minimum growth inhibitory and bactericidal concentrations for Enterobacteriaceae; type: cell-based; details: inoculum 10^4 cells; for MIC: read-out: MIC, Minimum growth inhibitory concentration; for MBC: read-out: MBC, minimum bactericidal concentration
Text: (§1) Miscellaneous. Methods for determining bactericidal activity and susceptibility to cell-free β-lactamase were those previously used; Leitner et al., BL-S640, A Cephalosporin With a Broad Spectrum of Antibacterial Activity: Properties in vitro, Antimicrob. Agents Chemother. 7:298-305 (1975).
(§2) *MIC, Minimum growth inhibitory concentration; MBC, minimum bactericidal
(§3) concentration; expressed as micrograms per milliliter. The inoculum was […]

Enterobacter aerogenes = test: as above; type: cell-based; details: Klebsiella aerogenes, inoculum 10^4 cells; for MBC: read-out: MBC, minimum bactericidal concentration; for MIC: read-out: MIC, Minimum growth inhibitory concentration
Text: as §1, §2, §3

Proteus mirabilis = test: as above; type: cell-based; details: for MBC: read-out: MBC, minimum bactericidal concentration; for MIC: read-out: MIC, Minimum growth inhibitory concentration
Text: as §1, §2, §3

Escherichia coli [4] = test: as above; type: cell-based; details: for MBC: read-out: MBC, minimum bactericidal concentration; for MIC: read-out: MIC, Minimum growth inhibitory concentration
Text: as §1, §2, §3

Enterobacter cloacae = test: as above; type: cell-based; details: for MBC: read-out: MBC, minimum bactericidal concentration; for MIC: read-out: MIC, Minimum growth inhibitory concentration
Text: as §1, §2, §3

Proteus rettgeri [5] = test: as above; type: cell-based; details: Providencia rettgeri, inoculum 10^4 cells; for MBC: read-out: MBC, minimum bactericidal concentration; for MIC: read-out: MIC, Minimum growth inhibitory concentration
Text: as §1, §2, §3

Klebsiella pneumoniae = test: as above; type: cell-based; details: for MBC: read-out: MBC, minimum bactericidal concentration; for MIC: read-out: MIC, Minimum growth inhibitory concentration
Text: as §1, §2, §3

[6] = Antibiotic concentration in blood after intramuscular injection; details: mouse, im
Arizona hinshawii = test: Growth inhibitory activity, antibiotic dilution technique; details: Salmonella enterica, read-out: Minimum inhibitory concentration
Proteus rettgeri [7] = test: as above; details: Providencia rettgeri, read-out: percent of strains inhibited
Staphylococcus Aureus = test: Effect of inoculum size on susceptibility of Staphylococcus aureus; type: cell-based; details: for MICB /MICA: MIC at 10^6 over MIC at 10^2 organisms; for MIC: Staphylococcus aureus, read-out: Minimum inhibitory concentration
Listeria monocytogenes = test: Growth inhibitory activity, antibiotic dilution technique; details: read-out: Minimum inhibitory concentration
[8] = Proteus vulgaris, Proteus vulgaris strain 2
[9] = Proteus vulgaris, Proteus vulgaris strain 4
[10] = Enterobacter aerogenes strain 1
[11] = Enterobacter aerogenes strain 2
[12] = Enterobacter aerogenes strain 3
[13] = Proteus mirabilis strain 1, inoculum 10^4 cells
[14] = Proteus mirabilis strain 2, inoculum 10^4 cells
[15] = Proteus mirabilis strain 3, inoculum 10^4 cells
[16] = Proteus mirabilis strain 4, inoculum 10^4 cells
[17] = Proteus mirabilis strain 5, inoculum 10^4 cells
[18] = Escherichia coli strain 1, inoculum 10^4 cells
[19] = Escherichia coli strain 2, inoculum 10^4 cells
[20] = Escherichia coli strain 3, inoculum 10^4 cells
[21] = Escherichia coli strain 4, inoculum 10^4 cells
[22] = Escherichia coli strain 5, inoculum 10^4 cells
[23] = Escherichia coli strain 6, inoculum 10^4 cells
[24] = Enterobacter cloacae strain 3, inoculum 10^4 cells
[25] = Enterobacter cloacae strain 4, inoculum 10^4 cells
[26] = Enterobacter cloacae strain 8, inoculum 10^4 cells
[27] = Klebsiella pneumoniae strain 1, inoculum 10^4 cells
[28] = Klebsiella pneumoniae strain 2, inoculum 10^4 cells
[29] = Klebsiella pneumoniae strain 3, inoculum 10^4 cells
[30] = Klebsiella pneumoniae strain 4, inoculum 10^4 cells
[31] = Klebsiella pneumoniae strain 5, inoculum 10^4 cells
[32] = Klebsiella pneumoniae strain 6, inoculum 10^4 cells

## NCc1ccccc1CC(=O)N[C@@H]1C(=O)N2C(C(=O)O)=C(CSc3nnnn3CC(=O)O)CS[C@H]12 [Example 1]
Vibrio cholerae
  MIC: 4 µg/mL (≈ 7.7 µM)
Escherichia coli [1]; read-out: Minimum Inhibitory Concentration, Escherichia coli strain 1, A, Inoculum of 10^2 organisms
  MIC: 0.5 µg/mL (≈ 0.962 µM)
Escherichia coli [1]; read-out: Minimum Inhibitory Concentration, Escherichia coli strain 1, B, Inoculum of 10^6 organisms
  MIC: 2 µg/mL (≈ 3.85 µM)
Escherichia coli [1]; read-out: Minimum Inhibitory Concentration, Escherichia coli strain 2, A, Inoculum of 10^2 organisms
  MIC: 4 µg/mL (≈ 7.7 µM)
Escherichia coli [1]; read-out: Minimum Inhibitory Concentration, Escherichia coli strain 2, B, Inoculum of 10^6 organisms
  MIC: 32 µg/mL (≈ 61.6 µM)
Escherichia coli [1]; read-out: Minimum Inhibitory Concentration, Escherichia coli strain 3, A, Inoculum of 10^2 organisms
  MIC: 0.25 µg/mL (≈ 0.481 µM)
Escherichia coli [1]; read-out: Minimum Inhibitory Concentration, Escherichia coli strain 3, B, Inoculum of 10^6 organisms
  MIC: 1 µg/mL (≈ 1.92 µM)
Escherichia coli [1]; read-out: Minimum Inhibitory Concentration, Escherichia coli strain 4, A, Inoculum of 10^2 organisms
  MIC: 0.5 µg/mL (≈ 0.962 µM)
Escherichia coli [1]; read-out: Minimum Inhibitory Concentration, Escherichia coli strain 4, B, Inoculum of 10^6 organisms
  MIC: 2 µg/mL (≈ 3.85 µM)
Escherichia coli [1]; read-out: Minimum Inhibitory Concentration, Escherichia coli strain 5, A, Inoculum of 10^2 organisms
  MIC: 1 µg/mL (≈ 1.92 µM)
Escherichia coli [1]; read-out: Minimum Inhibitory Concentration, Escherichia coli strain 5, B, Inoculum of 10^6 organisms
  MIC: 2 µg/mL (≈ 3.85 µM)
Escherichia coli [1]; read-out: Minimum Inhibitory Concentration, Escherichia coli strain 6, A, Inoculum of 10^2 organisms
  MIC: 0.5 µg/mL (≈ 0.962 µM)
Escherichia coli [1]; read-out: Minimum Inhibitory Concentration, Escherichia coli strain 6, B, Inoculum of 10^6 organisms
  MIC: 2 µg/mL (≈ 3.85 µM)
Escherichia coli [1]; read-out: Minimum Inhibitory Concentration, Escherichia coli strain 7, A, Inoculum of 10^2 organisms
  MIC: 0.25 µg/mL (≈ 0.481 µM)
Escherichia coli [1]; read-out: Minimum Inhibitory Concentration, Escherichia coli strain 7, B, Inoculum of 10^6 organisms
  MIC: 2 µg/mL (≈ 3.85 µM)
Serratia marcescens
  MIC: > 125 µg/mL
Proteus rettgeri [2]; read-out: Minimum Inhibitory Concentration, Proteus rettgeri strain 1, A, Inoculum of 10^2 organisms
  MIC: 0.13 µg/mL (≈ 0.25 µM)
Proteus rettgeri [2]; read-out: Minimum Inhibitory Concentration, Proteus rettgeri strain 1, B, Inoculum of 10^6 organisms
  MIC: 125 µg/mL (≈ 241 µM)
Proteus rettgeri [2]; read-out: Minimum Inhibitory Concentration, Proteus rettgeri strain 2, A, Inoculum of 10^2 organisms
  MIC: 0.13 µg/mL (≈ 0.25 µM)
Proteus rettgeri [2]; read-out: Minimum Inhibitory Concentration, Proteus rettgeri strain 2, B, Inoculum of 10^6 organisms
  MIC: 63 µg/mL (≈ 121 µM)
Proteus rettgeri [2]; read-out: Minimum Inhibitory Concentration, Proteus rettgeri strain 3, A, Inoculum of 10^2 organisms
  MIC: 0.25 µg/mL (≈ 0.481 µM)
Proteus rettgeri [2]; read-out: Minimum Inhibitory Concentration, Proteus rettgeri strain 3, B, Inoculum of 10^6 organisms
  MIC: > 250 µg/mL
Alcaligenes sp.; read-out: Minimum inhibitory concentration, Alcaligenes sp., 2 strains, geometric mean when applicable
  MIC: 63 µg/mL (≈ 121 µM)
Alcaligenes sp.; read-out: Minimum inhibitory concentration, Alcaligenes sp., 4 strains, geometric mean when applicable
  MIC: > 125 µg/mL
Alcaligenes sp.; read-out: Minimum inhibitory concentration, Alcaligenes sp., 5 strains, geometric mean when applicable
  MIC: 2.6 µg/mL (≈ 5 µM)
[3]
  dose excreted at 24 h: 65%
Clostridium sp.; 48 h, read-out: concentration inhibiting all strains
  MIC: 2 µg/mL (≈ 3.85 µM)
Clostridium sp.; read-out: Minimum inhibitory concentration
  MIC: 2 µg/mL (≈ 3.85 µM)
Proteus vulgaris; Proteus vulgaris strain 1
  MIC: 0.5 µg/mL (≈ 0.962 µM)
Proteus vulgaris; Proteus vulgaris, Proteus vulgaris strain 1
  MBC: 1 µg/mL (≈ 1.92 µM)
Proteus vulgaris; [8]
  MBC: 0.5 µg/mL (≈ 0.962 µM)
  MIC: 0.5 µg/mL (≈ 0.962 µM)
Proteus vulgaris; [9]
  MBC: 1 µg/mL (≈ 1.92 µM)
  MIC: 0.5 µg/mL (≈ 0.962 µM)
Enterobacter aerogenes; [10]
  MBC: 2 µg/mL (≈ 3.85 µM)
  MIC: 2 µg/mL (≈ 3.85 µM)
Enterobacter aerogenes; [11]
  MBC: 2 µg/mL (≈ 3.85 µM)
  MIC: 2 µg/mL (≈ 3.85 µM)
Enterobacter aerogenes; [12]
  MBC: 16 µg/mL (≈ 30.8 µM)
  MIC: 8 µg/mL (≈ 15.4 µM)
Proteus mirabilis; [13]
  MBC: 1 µg/mL (≈ 1.92 µM)
  MIC: 0.5 µg/mL (≈ 0.962 µM)
Proteus mirabilis; [14]
  MBC: 0.5 µg/mL (≈ 0.962 µM)
  MIC: 0.5 µg/mL (≈ 0.962 µM)
Proteus mirabilis; [15]
  MBC: 0.5 µg/mL (≈ 0.962 µM)
  MIC: 0.5 µg/mL (≈ 0.962 µM)
Proteus mirabilis; [16]
  MBC: 0.5 µg/mL (≈ 0.962 µM)
  MIC: 0.25 µg/mL (≈ 0.481 µM)
Proteus mirabilis; [17]
  MBC: 0.5 µg/mL (≈ 0.962 µM)
  MIC: 0.5 µg/mL (≈ 0.962 µM)
Escherichia coli [4]; [18]
  MBC: 0.5 µg/mL (≈ 0.962 µM)
  MIC: 0.5 µg/mL (≈ 0.962 µM)
Escherichia coli [4]; [19]
  MBC: 16 µg/mL (≈ 30.8 µM)
  MIC: 16 µg/mL (≈ 30.8 µM)
Escherichia coli [4]; [20]
  MBC: 0.5 µg/mL (≈ 0.962 µM)
  MIC: 0.25 µg/mL (≈ 0.481 µM)
Escherichia coli [4]; [21]
  MBC: 0.5 µg/mL (≈ 0.962 µM)
  MIC: 0.5 µg/mL (≈ 0.962 µM)
Escherichia coli [4]; [22]
  MBC: 1 µg/mL (≈ 1.92 µM)
  MIC: 1 µg/mL (≈ 1.92 µM)
Escherichia coli [4]; [23]
  MBC: 1 µg/mL (≈ 1.92 µM)
  MIC: 1 µg/mL (≈ 1.92 µM)
Enterobacter cloacae; [24]
  MBC: 8 µg/mL (≈ 15.4 µM)
  MIC: 4 µg/mL (≈ 7.7 µM)
Enterobacter cloacae; [25]
  MBC: 63 µg/mL (≈ 121 µM)
  MIC: 8 µg/mL (≈ 15.4 µM)
Enterobacter cloacae; [26]
  MBC: 63 µg/mL (≈ 121 µM)
  MIC: 63 µg/mL (≈ 121 µM)
Proteus rettgeri [5]; Proteus rettgeri strain 2
  MBC: 0.13 µg/mL (≈ 0.25 µM)
  MIC: 0.063 µg/mL (≈ 0.121 µM)
Proteus rettgeri [5]; Proteus rettgeri strain 3
  MBC: 63 µg/mL (≈ 121 µM)
  MIC: 0.25 µg/mL (≈ 0.481 µM)
Klebsiella pneumoniae; [27]
  MBC: 0.25 µg/mL (≈ 0.481 µM)
  MIC: 0.25 µg/mL (≈ 0.481 µM)
Klebsiella pneumoniae; [28]
  MBC: 0.25 µg/mL (≈ 0.481 µM)
  MIC: 0.25 µg/mL (≈ 0.481 µM)
Klebsiella pneumoniae; [29]
  MBC: 0.25 µg/mL (≈ 0.481 µM)
  MIC: 0.25 µg/mL (≈ 0.481 µM)
Klebsiella pneumoniae; [30]
  MBC: 0.5 µg/mL (≈ 0.962 µM)
  MIC: 0.5 µg/mL (≈ 0.962 µM)
Klebsiella pneumoniae; [31]
  MBC: 0.5 µg/mL (≈ 0.962 µM)
  MIC: 0.5 µg/mL (≈ 0.962 µM)
Klebsiella pneumoniae; [32]
  MBC: 1 µg/mL (≈ 1.92 µM)
  MIC: 0.5 µg/mL (≈ 0.962 µM)
[6]
  Tmax: 15 min
  half-life: 33 min
[6]; 20 mg/kg
  Cmax: 36000 ng/mL
Arizona hinshawii
  MIC: 0.13 µg/mL (≈ 0.25 µM)
Proteus rettgeri [7]
  inhibition at 16 µg/mL: 78%
Staphylococcus Aureus; Lacking penicillinase, 3 strains
  MICB /MICA: 1.6
Staphylococcus Aureus; Penicillinase producer, 26 strains
  MICB /MICA: 1.5
Staphylococcus Aureus; Lacking penicillinase, 3 strains, B, inoculum of 10^6 organisms, geometric means
  MIC: 2.5 µg/mL (≈ 4.81 µM)
Staphylococcus Aureus; Penicillinase producer, 26 strains, A, Inoculum of 10^2 organisms, geometric means
  MIC: 3.8 µg/mL (≈ 7.31 µM)
Staphylococcus Aureus; Penicillinase producer, 26 strains, B, inoculum of 10^6 organisms, geometric means
  MIC: 5.7 µg/mL (≈ 11 µM)
Staphylococcus Aureus
  MIC: 1.6 µg/mL (≈ 3.08 µM)
Staphylococcus Aureus; penicillinase-producing strains
  effect of cell concentration on growth inhibitory activity: slightly
Listeria monocytogenes
  MIC: 10.8 µg/mL (≈ 20.8 µM)
